Measurements from patent US20260265239A1, “CRYSTAL FORM OF 2,6-PIPERIDINEDIONE COMPOUND, AND PREPARATION METHOD THEREFOR AND USE THEREOF” (ZHANGZHOU PIEN TZE HUANG PHARMACEUTICAL CO., LTD., priority 2023, published 2026).

Experiments:
[1] = Hygroscopicity study by dynamic vapor sorption (DVS); type: physicochemical
Protocol: • Instrument model: DVS Intrinsic Plus Dynamic Vapor Sorption Analyzer from SMS (Surface Measurement Systems) • Test conditions: The sample (10 to 20 mg) is placed in a DVS sample pan for testing.
The detailed DVS parameters are as follows: • Temperature: 25° C. • Equilibrium: dm/dt=0.002%/min (minimum: 10 min, maximum: 180 min) • Drying: 120 min at 0% RH • RH (%) test steps: 10% • RH (%) test step range: 0%-95%-0%
The hygroscopicity evaluation is classified as follows:
• DVS Intrinsic Plus Dynamic Vapor Sorption Analyzer from SMS (Surface Measurement Systems).

[2] = Stability in solvents: anti-solvent addition, XRPD; type: physicochemical; conditions: anti-solvent Water
Protocol: (§1) • Instrument model: PANalytacal X-ray Powder Diffractometer • Test method: Approximately 10 to 20 mg of the sample is used for XRPD detection.
(§2) The detailed XRPD parameters are as follows: • X-ray tube: Cu, kα, (λ=1.540598 Å, λ=1.544426 Å). • X-ray tube voltage: 45 kV, X-ray tube current: 40 mA • Divergence slit: ⅛° • Scan mode: continuous • Scanning range (°2Theta): 3-40 • Scanning time per step (s): 46.7 • Scanning step size (°2Theta): […] • Test duration: approximately 5 min
While stirring (1000 rpm), the anti-solvent listed in the table below was added dropwise to the clear solution until solids precipitated, or until the total volume of anti-solvent reached 10 mL. Samples without precipitation were stirred in suspension at 5° C., while clear samples were transferred to −20° C. for suspension stirring. If still clear, the samples were transferred to room temperature for volatilization. The precipitated solids were isolated and subjected to XRPD testing.

[3] = Pharmacokinetic evaluation in beagle dogs; type: in vivo; conditions: Intragastric administration, 5 mg/kg, listed as Crystal Form A of Compound of Formula (I)
Text: Male beagle dogs were selected as the experimental animals in this study. The LC/MS/MS method was employed to quantitatively determine the plasma drug concentrations at different time points after intravenous injection or intragastric administration of the test compound, aiming to evaluate the pharmacokinetic characteristics of the compound of the present disclosure in beagle dogs.
Beagle dogs (male, 7 to 10 kg, Beijing Mars Biotechnology Co., Ltd.).
A solution of the test compound was slowly injected intravenously into beagle dogs (fed) via the peripheral vein (vehicle: 5% DMSO/10% Solutol/85% H2O), or administered intragastrically to beagle dogs (fed). For intravenous administration, 0.5 mL of blood was collected from the peripheral vein at 0.083, 0.25, 0.5, 1, 2, 4, 6, 8, and 24 h after administration, placed in EDTA-2K anticoagulant tubes, and centrifuged at 3200 g for 10 minutes at 2 to 8° C. to separate the supernatant. For intragastric administration, 0.5 mL of blood was collected from the peripheral vein at 0.083, 0.25, 0.5, 1, 2, 4, 6, 8, and 24 h after administration, placed in EDTA-2K anticoagulant tubes, and centrifuged at 3200 g for 10 minutes at 2 to 8° C. to separate the supernatant. Plasma drug concentrations were determined by the LC-MS/MS method, and relevant pharmacokinetic parameters were calculated using Phoenix WinNonlin 6.3 or 8.3.5 pharmacokinetic software with non-compartmental model linear-log trapezoidal method.

[4] = Pressure (mechanical) stability, XRPD; type: physicochemical; conditions: 350 MPa
Protocol: as §1, §2
The sample in the mold was compressed under a pressure of 350 MPa. The solid was collected for XRPD characterization.

[5] = Solid stability test under accelerated conditions; type: physicochemical
Text: Samples were taken for testing at the 1st, 2nd, and 3rd months, and the test results were compared with the initial test results at day 0.

[6] = Solid stability test under long-term conditions; type: physicochemical
Text: Samples were taken for testing at the 1st and 2nd months, and the test results were compared with the initial test results at day 0.

[7] = Solid stability test under high temperature, high humidity and strong light exposure; type: physicochemical
Protocol: Samples placed under high-temperature conditions were examined in an electric blast drying oven, while samples placed under high-humidity conditions were examined in a comprehensive drug stability test chamber. Sampling and testing were conducted on the 5th, 10th, and 30th days, and the test results were compared with the initial test results on day 0. Samples placed under strong light exposure conditions were left open, and sampling and testing were performed on the 5th and 10th days, with the test results compared to the initial test results on day 0.

[8] = Stability in solvents: suspension stirring at room temperature, XRPD; type: physicochemical; conditions: acetone, tetrahydrofuran, 1,4-dioxane, methanol, ethanol, isopropanol, water and mixed solvents with water
Protocol: as §1, §2
The resulting suspensions were magnetically stirred at room temperature (1000 rpm) for 3 days, then centrifuged to collect the solids, which were subjected to XRPD testing.

[9] = 40° C./75% Relative Humidity, Sealed + Desiccant, 1 month
[10] = 40° C./75% Relative Humidity, Sealed + Desiccant, 2 month
[11] = 40° C./75% Relative Humidity, Sealed + Desiccant, 3 month
[12] = 25° C./60% Relative Humidity, Sealed + Desiccant, 1 month
[13] = 25° C./60% Relative Humidity, Sealed + Desiccant, 2 month
[14] = High Humidity (Room Temperature/Relative Humidity: 92.5%, Open), Day 5
[15] = High Humidity (Room Temperature/Relative Humidity: 92.5%, Open), Day 10
[16] = High Temperature (60° C., Open), Day 5
[17] = High Temperature (60° C., Open), Day 10
[18] = Strong Light Exposure (5000 ± 500 Lux, 90 μw/cm^2, Open), Day 10
[19] = Strong Light Exposure test, Day 10 (Light Exposure Control)

O=C1CCC(c2noc3ccc4c(NC(=O)CN5CCN(C[C@H]6CC[C@H](n7cc(NC(=O)c8coc(-c9ccnc(NCC%10CC%10)c9)n8)c(C(F)F)n7)CC6)CC5)cccc4c23)C(=O)N1 (stereo partly shown)
crystal form before and after DVS [1]: no change in crystal form
ΔW (hygroscopic weight gain) ([1]; DVS, 25° C. and 80% RH): 3.536%
XRPD Results Anti-Solvent Addition ([2]; solvent Dimethyl sulfoxide): Amorphous
XRPD Results Anti-Solvent Addition ([2]; solvent N-Methylpyrrolidone): Amorphous
Area Under the Drug-Time Curve (0-inf) [3]: 8.18 µM·h
Peak Concentration [3]: 0.70 µM
Time to Peak Concentration [3]: 5.00 h
stability under compression mold pressure (conclusion) [4]: good stability
Content [5, 9]: 99.3%
Total Impurities [5, 9]: 2.7%
Content [5, 10]: 99.5%
Total Impurities [5, 10]: 2.7%
Content [5, 11]: 99.1%
Total Impurities [5, 11]: 2.7%
Content ([5]; Day 0): 100.0%
Total Impurities ([5]; Day 0): 2.4%
stability (conclusion) ([5]; accelerated conditions of 40° C./75% relative humidity): good stability
Content [6, 12]: 99.5%
Total Impurities [6, 12]: 2.8%
Content [6, 13]: 99.2%
Total Impurities [6, 13]: 2.9%
Content ([6]; Day 0): 100.0%
Total Impurities ([6]; Day 0): 2.4%
stability (conclusion) ([6]; long-term conditions of 25° C./60% relative humidity): good stability
Content ([7]; Day 0): 100.0%
Total Impurities ([7]; Day 0): 2.4%
Content [7, 14]: 99.7%
Total Impurities [7, 14]: 2.4%
Content [7, 15]: 100.1%
Total Impurities [7, 15]: 2.5%
Content [7, 16]: 102.8%
Total Impurities [7, 16]: 2.5%
Content [7, 17]: 102.5%
Total Impurities [7, 17]: 2.5%
Content [7, 18]: 102.3%
Total Impurities [7, 18]: 2.6%
Content [7, 19]: 101.5%
Total Impurities [7, 19]: 2.4%
stability (conclusion) ([7]; high temperature, high humidity, and strong light exposure conditions): good stability
stability in solvents (conclusion) [8]: good stability
